Reference: paper PMC6591251, “Discovery of potent necroptosis inhibitors targeting RIPK1 kinase activity for the treatment of inflammatory disorder and cancer metastasis” (Cell Death & Disease, 2019)

Key:
Experiment in all cases: RBC kinase panel
Type in all cases: biochemical
Conditions in all cases: ATP 10 μM, Data1, Data2
AXL = target: T1, AXL (Homo sapiens, UniProt P30530)
T1 construct: purchased Reaction Biology Corporation
How it was run: (§1)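 1 μM inhibitor; n = 2; ATP 10 μM; broad panel of 369 human kinases.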

CAMK1b = target: T2, CAMK1b (Homo sapiens, UniProt Q6P2M8)
T2 construct: purchased Reaction Biology Corporation
How it was run: as §1

CDK14/cyclin Y (PFTK1) = target: T3, CDK14/cyclin Y (PFTK1) (Homo sapiens, UniProt O94921)
T3 construct: purchased Reaction Biology Corporation
How it was run: as §1

CDK16/cyclin Y (PCTAIRE) = target: T4, CDK16/cyclin Y (PCTAIRE) (Homo sapiens, UniProt Q00536)
T4 construct: purchased Reaction Biology Corporation
How it was run: as §1

CDK5/p35 = target: T5, CDK5/p35 (Homo sapiens, UniProt Q00535)
T5 construct: purchased Reaction Biology Corporation
How it was run: as §1

CK1epsilon = target: T6, CK1epsilon (Homo sapiens, UniProt P49674)
T6 construct: purchased Reaction Biology Corporation
T6 sequence (P49674 whole entry): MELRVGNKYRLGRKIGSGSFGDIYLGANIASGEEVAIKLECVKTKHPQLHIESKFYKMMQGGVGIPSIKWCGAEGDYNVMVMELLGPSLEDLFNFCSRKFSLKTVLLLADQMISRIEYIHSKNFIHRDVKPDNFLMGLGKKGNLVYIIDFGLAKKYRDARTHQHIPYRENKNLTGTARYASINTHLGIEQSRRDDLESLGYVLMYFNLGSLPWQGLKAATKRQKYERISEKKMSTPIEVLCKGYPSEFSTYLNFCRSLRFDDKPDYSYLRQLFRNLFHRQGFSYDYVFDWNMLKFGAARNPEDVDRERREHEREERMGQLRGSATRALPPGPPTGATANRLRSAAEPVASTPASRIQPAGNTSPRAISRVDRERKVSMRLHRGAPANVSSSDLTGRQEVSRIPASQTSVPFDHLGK
How it was run: as §1

CLK2 = target: T7, CLK2 (Homo sapiens, UniProt P49760)
T7 construct: purchased Reaction Biology Corporation
How it was run: as §1

CLK4 = target: T8, CLK4 (Homo sapiens, UniProt Q9HAZ1)
T8 construct: purchased Reaction Biology Corporation
How it was run: as §1

DDR2 = target: T9, DDR2 (Homo sapiens, UniProt Q16832)
T9 construct: purchased Reaction Biology Corporation
T9 sequence (Q16832 22-855): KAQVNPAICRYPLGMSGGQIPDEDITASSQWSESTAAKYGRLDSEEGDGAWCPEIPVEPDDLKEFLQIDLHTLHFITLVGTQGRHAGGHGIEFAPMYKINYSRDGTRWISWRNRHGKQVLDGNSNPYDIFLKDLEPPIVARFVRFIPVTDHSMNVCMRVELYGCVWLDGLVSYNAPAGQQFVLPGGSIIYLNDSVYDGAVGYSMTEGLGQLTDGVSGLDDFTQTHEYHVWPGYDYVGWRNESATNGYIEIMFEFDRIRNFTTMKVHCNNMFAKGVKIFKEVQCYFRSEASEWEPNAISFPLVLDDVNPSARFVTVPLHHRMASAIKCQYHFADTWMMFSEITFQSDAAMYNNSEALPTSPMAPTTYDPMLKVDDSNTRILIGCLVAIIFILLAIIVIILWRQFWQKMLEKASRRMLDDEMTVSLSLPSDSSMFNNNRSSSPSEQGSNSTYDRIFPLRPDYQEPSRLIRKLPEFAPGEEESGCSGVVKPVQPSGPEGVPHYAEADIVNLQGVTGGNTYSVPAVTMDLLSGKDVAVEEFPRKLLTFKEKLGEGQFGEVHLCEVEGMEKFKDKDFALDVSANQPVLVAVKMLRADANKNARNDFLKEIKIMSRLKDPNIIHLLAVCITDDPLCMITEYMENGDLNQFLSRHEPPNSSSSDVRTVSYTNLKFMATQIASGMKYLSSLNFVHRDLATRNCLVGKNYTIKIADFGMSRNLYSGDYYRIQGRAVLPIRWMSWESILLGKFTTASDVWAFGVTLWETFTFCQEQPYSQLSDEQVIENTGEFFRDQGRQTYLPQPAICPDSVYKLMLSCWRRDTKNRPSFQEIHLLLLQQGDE
How it was run: as §1

ERK1 = target: T10, ERK1 (Homo sapiens, UniProt P27361)
T10 construct: purchased Reaction Biology Corporation
How it was run: as §1

ERK2/MAPK1 = target: T11, ERK2/MAPK1 (Homo sapiens, UniProt P28482)
T11 construct: purchased Reaction Biology Corporation
How it was run: as §1

FAK/PTK2 = target: T12, FAK/PTK2 (Homo sapiens, UniProt Q05397)
T12 construct: purchased Reaction Biology Corporation
How it was run: as §1

FGFR4 = target: T13, FGFR4 (Homo sapiens, UniProt P22455)
T13 construct: purchased Reaction Biology Corporation
How it was run: as §1

FRK/PTK5 = target: T14, FRK/PTK5 (Homo sapiens, UniProt P42685)
T14 construct: purchased Reaction Biology Corporation
T14 sequence (P42685 whole entry): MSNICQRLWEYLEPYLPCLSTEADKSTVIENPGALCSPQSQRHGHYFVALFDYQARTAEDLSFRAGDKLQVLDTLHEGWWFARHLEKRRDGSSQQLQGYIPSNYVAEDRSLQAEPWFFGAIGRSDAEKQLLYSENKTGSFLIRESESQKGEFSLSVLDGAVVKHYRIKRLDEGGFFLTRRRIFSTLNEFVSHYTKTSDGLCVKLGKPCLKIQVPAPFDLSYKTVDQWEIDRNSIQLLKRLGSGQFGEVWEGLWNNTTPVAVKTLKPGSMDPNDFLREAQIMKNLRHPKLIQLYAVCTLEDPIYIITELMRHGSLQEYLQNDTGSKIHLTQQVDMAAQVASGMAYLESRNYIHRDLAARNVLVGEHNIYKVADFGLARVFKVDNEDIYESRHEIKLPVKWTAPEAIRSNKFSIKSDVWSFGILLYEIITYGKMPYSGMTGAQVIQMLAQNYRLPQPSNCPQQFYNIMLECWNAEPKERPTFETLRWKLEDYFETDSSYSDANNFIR
How it was run: as §1

GRK2 = target: T15, GRK2 (Homo sapiens, UniProt P25098)
T15 construct: purchased Reaction Biology Corporation
How it was run: as §1

HPK1/MAP4K1 = target: T16, HPK1/MAP4K1 (Homo sapiens, UniProt Q92918)
T16 construct: purchased Reaction Biology Corporation
T16 sequence (Q92918 whole entry): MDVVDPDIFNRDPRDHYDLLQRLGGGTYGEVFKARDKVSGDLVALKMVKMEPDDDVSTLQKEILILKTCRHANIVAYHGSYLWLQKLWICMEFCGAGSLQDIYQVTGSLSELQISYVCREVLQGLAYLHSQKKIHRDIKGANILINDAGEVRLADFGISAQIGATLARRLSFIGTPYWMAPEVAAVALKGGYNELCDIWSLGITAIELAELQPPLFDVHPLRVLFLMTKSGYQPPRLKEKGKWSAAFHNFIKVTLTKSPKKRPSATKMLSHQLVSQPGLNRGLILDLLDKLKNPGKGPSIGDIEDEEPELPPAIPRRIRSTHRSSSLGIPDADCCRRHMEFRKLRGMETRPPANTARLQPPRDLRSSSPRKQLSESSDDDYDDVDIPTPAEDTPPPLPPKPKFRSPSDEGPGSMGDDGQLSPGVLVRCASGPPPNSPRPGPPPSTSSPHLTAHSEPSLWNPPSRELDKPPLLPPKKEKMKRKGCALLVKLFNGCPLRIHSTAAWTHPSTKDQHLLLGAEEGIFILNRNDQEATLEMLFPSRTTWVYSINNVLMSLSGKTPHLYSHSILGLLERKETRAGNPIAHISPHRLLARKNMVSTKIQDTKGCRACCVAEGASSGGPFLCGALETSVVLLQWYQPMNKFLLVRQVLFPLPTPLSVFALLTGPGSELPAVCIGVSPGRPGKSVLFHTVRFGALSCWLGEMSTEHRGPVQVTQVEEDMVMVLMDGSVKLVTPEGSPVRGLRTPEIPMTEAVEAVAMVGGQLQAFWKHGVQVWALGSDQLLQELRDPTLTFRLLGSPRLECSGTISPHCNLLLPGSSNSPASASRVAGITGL
How it was run: as §1

IRAK1 = target: T17, IRAK1 (Homo sapiens, UniProt P51617)
T17 construct: purchased Reaction Biology Corporation
T17 sequence (P51617 whole entry): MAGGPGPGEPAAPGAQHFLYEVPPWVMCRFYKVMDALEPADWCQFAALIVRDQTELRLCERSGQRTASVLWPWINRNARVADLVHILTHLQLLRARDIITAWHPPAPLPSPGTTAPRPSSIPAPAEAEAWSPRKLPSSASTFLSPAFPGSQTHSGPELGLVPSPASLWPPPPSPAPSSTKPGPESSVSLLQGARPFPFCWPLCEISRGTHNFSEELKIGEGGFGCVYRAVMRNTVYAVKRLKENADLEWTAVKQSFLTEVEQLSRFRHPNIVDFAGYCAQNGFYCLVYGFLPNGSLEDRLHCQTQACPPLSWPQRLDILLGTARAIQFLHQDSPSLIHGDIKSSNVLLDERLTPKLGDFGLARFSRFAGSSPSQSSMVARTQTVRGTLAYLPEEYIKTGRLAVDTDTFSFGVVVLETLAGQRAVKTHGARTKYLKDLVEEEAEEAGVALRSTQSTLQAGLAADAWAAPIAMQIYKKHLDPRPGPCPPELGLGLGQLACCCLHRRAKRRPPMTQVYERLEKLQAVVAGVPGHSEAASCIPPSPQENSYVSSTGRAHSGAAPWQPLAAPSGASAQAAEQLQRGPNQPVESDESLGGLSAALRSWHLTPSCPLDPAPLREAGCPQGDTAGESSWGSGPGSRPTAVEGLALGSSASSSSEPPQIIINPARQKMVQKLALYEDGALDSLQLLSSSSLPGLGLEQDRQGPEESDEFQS
How it was run: as §1

MEKK3 = target: T18, MEKK3 (Homo sapiens, UniProt Q99759)
T18 construct: purchased Reaction Biology Corporation
How it was run: as §1

MNK2 = target: T19, MNK2 (Homo sapiens, UniProt Q9HBH9)
T19 construct: purchased Reaction Biology Corporation
How it was run: as §1

MRCKa/CDC42BPA = target: T20, MRCKa/CDC42BPA (Homo sapiens, UniProt Q5VT25)
T20 construct: purchased Reaction Biology Corporation
How it was run: as §1

MUSK = target: T21, MUSK (Homo sapiens, UniProt O15146)
T21 construct: purchased Reaction Biology Corporation
How it was run: as §1

NEK11 = target: T22, NEK11 (Homo sapiens, UniProt Q8NG66)
T22 construct: purchased Reaction Biology Corporation
How it was run: as §1

NEK4 = target: T23, NEK4 (Homo sapiens, UniProt P51957)
T23 construct: purchased Reaction Biology Corporation
How it was run: as §1

PAK2 = target: T24, PAK2 (Homo sapiens, UniProt Q13177)
T24 construct: purchased Reaction Biology Corporation
How it was run: as §1

PKCa = target: T25, PKCa (Homo sapiens, UniProt P17252)
T25 construct: purchased Reaction Biology Corporation
How it was run: as §1

PKD2/PRKD2 = target: T26, PKD2/PRKD2 (Homo sapiens, UniProt Q9BZL6)
T26 construct: purchased Reaction Biology Corporation
How it was run: as §1

RSK3 = target: T27, RSK3 (Homo sapiens, UniProt Q15349)
T27 construct: purchased Reaction Biology Corporation
How it was run: as §1

SIK3 = target: T28, SIK3 (Homo sapiens, UniProt Q9Y2K2)
T28 construct: purchased Reaction Biology Corporation
How it was run: as §1

SSTK/TSSK6 = target: T29, SSTK/TSSK6 (Homo sapiens, UniProt Q9BXA6)
T29 construct: purchased Reaction Biology Corporation
T29 sequence (Q9BXA6 whole entry): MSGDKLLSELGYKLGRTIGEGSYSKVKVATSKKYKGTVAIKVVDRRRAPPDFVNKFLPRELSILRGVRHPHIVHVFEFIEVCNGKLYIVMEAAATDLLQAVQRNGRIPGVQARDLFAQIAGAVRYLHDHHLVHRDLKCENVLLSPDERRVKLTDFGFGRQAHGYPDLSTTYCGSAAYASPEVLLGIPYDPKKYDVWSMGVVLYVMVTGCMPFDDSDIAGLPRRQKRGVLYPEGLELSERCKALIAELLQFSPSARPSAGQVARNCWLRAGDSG
How it was run: as §1

STK39/STLK3 = target: T30, STK39/STLK3 (Homo sapiens, UniProt Q9UEW8)
T30 construct: purchased Reaction Biology Corporation
How it was run: as §1

TAOK3/JIK = target: T31, TAOK3/JIK (Homo sapiens, UniProt Q9H2K8)
T31 construct: purchased Reaction Biology Corporation
T31 sequence (Q9H2K8 whole entry): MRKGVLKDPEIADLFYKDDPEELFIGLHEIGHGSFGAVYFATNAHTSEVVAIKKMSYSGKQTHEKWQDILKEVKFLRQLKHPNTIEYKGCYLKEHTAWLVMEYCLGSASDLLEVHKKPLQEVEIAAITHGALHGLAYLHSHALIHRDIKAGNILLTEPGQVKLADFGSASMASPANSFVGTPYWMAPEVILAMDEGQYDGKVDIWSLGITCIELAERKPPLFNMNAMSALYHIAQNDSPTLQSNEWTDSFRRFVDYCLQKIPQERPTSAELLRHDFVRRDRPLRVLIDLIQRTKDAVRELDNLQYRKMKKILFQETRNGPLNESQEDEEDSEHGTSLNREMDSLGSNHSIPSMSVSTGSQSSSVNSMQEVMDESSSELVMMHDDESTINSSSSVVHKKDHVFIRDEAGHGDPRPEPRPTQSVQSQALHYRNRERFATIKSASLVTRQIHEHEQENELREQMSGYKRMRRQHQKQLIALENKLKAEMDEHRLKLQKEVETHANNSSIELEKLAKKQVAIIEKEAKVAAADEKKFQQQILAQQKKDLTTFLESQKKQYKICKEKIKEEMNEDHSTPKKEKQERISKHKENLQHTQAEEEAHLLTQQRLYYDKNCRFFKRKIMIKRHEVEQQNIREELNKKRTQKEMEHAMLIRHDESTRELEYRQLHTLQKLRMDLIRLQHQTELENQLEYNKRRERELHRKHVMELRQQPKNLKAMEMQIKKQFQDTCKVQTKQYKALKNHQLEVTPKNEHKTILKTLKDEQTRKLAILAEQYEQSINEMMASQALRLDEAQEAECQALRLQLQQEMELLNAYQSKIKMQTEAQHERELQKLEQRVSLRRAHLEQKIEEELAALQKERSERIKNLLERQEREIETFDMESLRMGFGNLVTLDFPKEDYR
How it was run: as §1

TLK1 = target: T32, TLK1 (Homo sapiens, UniProt Q9UKI8)
T32 construct: purchased Reaction Biology Corporation
How it was run: as §1

p70S6K/RPS6KB1 = target: T33, p70S6K/RPS6KB1 (Homo sapiens, UniProt P23443)
T33 construct: purchased Reaction Biology Corporation
T33 sequence (P23443 whole entry): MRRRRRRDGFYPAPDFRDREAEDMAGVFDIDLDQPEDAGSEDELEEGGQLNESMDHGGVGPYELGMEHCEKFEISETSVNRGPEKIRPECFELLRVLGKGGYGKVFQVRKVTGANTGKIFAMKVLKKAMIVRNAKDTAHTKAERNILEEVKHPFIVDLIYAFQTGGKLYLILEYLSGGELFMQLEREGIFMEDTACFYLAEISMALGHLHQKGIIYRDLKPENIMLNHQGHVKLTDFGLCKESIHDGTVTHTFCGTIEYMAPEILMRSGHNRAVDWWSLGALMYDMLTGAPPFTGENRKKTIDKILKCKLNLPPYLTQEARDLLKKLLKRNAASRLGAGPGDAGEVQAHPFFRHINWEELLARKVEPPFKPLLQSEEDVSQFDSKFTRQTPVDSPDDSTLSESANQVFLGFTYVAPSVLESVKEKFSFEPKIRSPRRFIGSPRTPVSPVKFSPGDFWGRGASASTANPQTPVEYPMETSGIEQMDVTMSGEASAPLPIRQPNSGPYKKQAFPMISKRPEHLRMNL
How it was run: as §1

CC(=O)Nc1nc2ccc(-c3cnc(C)c(NC(=O)OC4CCCCC4)c3)cc2s1 [PK68, cyclohexyl (5-(2-acetamidobenzo[d]thiazol-6-yl)-2-methylpyridin-3-yl)carbamate]
Activity% (AXL; 1 μM): 98.35% | activity at 1 µM (AXL): 98.8% | Activity% (CAMK1b; 1 μM): 99.49% | activity at 1 µM (CAMK1b): 101% | Activity% (CDK14/cyclin Y (PFTK1); 1 μM): 96.97% | activity at 1 µM (CDK14/cyclin Y (PFTK1)): 97.4% | Activity% (CDK16/cyclin Y (PCTAIRE); 1 μM): 96.14% | activity at 1 µM (CDK16/cyclin Y (PCTAIRE)): 99.2% | Activity% (CDK5/p35; 1 μM): 100.63% | activity at 1 µM (CDK5/p35): 102% | Activity% (CK1epsilon; 1 μM): 74.35% | activity at 1 µM (CK1epsilon): 78.2% | Activity% (CLK2; 1 μM): 77.67% | activity at 1 µM (CLK2): 80.5% | Activity% (CLK4; 1 μM): 70.07% | activity at 1 µM (CLK4): 71% | Activity% (DDR2; 1 μM): 103.50% | activity at 1 µM (DDR2): 105% | Activity% (ERK1; 1 μM): 87.90% | activity at 1 µM (ERK1): 91.6% | Activity% (ERK2/MAPK1; 1 μM): 92.60% | activity at 1 µM (ERK2/MAPK1): 96.9% | Activity% (FAK/PTK2; 1 μM): 96.95% | activity at 1 µM (FAK/PTK2): 98% | Activity% (FGFR4; 1 μM): 89.46% | activity at 1 µM (FGFR4): 89.9% | Activity% (FRK/PTK5; 1 μM): 97.78% | activity at 1 µM (FRK/PTK5): 101% | Activity% (GRK2; 1 μM): 99.02% | activity at 1 µM (GRK2): 101% | Activity% (HPK1/MAP4K1; 1 μM): 98.32% | activity at 1 µM (HPK1/MAP4K1): 101% | Activity% (IRAK1; 1 μM): 90.54% | activity at 1 µM (IRAK1): 92.5% | Activity% (MEKK3; 1 μM): 111.45% | activity at 1 µM (MEKK3): 115% | Activity% (MNK2; 1 μM): 88.77% | activity at 1 µM (MNK2): 90.5% | Activity% (MRCKa/CDC42BPA; 1 μM): 101.41% | activity at 1 µM (MRCKa/CDC42BPA): 104% | Activity% (MUSK; 1 μM): 70.88% | activity at 1 µM (MUSK): 75.9% | Activity% (NEK11; 1 μM): 81.13% | activity at 1 µM (NEK11): 85.4% | Activity% (NEK4; 1 μM): 97.97% | activity at 1 µM (NEK4): 98.9% | Activity% (PAK2; 1 μM): 104.24% | activity at 1 µM (PAK2): 105% | Activity% (PKCa; 1 μM): 98.94% | activity at 1 µM (PKCa): 99.5% | Activity% (PKD2/PRKD2; 1 μM): 90.63% | activity at 1 µM (PKD2/PRKD2): 93.9% | Activity% (RSK3; 1 μM): 96.49% | activity at 1 µM (RSK3): 97.6% | Activity% (SIK3; 1 μM): 94.84% | activity at 1 µM (SIK3): 99.4% | Activity% (SSTK/TSSK6; 1 μM): 91.18% | activity at 1 µM (SSTK/TSSK6): 91.3% | Activity% (STK39/STLK3; 1 μM): 92.54% | activity at 1 µM (STK39/STLK3): 95.8% | Activity% (TAOK3/JIK; 1 μM): 93.52% | activity at 1 µM (TAOK3/JIK): 94.6% | Activity% (TLK1; 1 μM): 97.39% | activity at 1 µM (TLK1): 99.2% | Activity% (p70S6K/RPS6KB1; 1 μM): 101.85% | activity at 1 µM (p70S6K/RPS6KB1): 102%
